Results published in patent US8017346B2, “Method of quantifying the G protein-coupled receptor (GPCR)/G protein coupling using a cell membrane array” (Universidad Del Pais Vasco, priority 2005, dated 2011).
Peptide text beside a SMILES is read from it.

Tested on: galanin receptors
Experiment: [35S]GTPγS autoradiography on tissue membrane arrays with galanin receptor ligands
Type: biochemical, rat
Details: for effect on the action of galnon on [35S]GTPγS fixing: combination with galnon, tissue arrays (FIG. 5); for [35S]GTPγS fixing in the presence of ligand versus baseline: pituitary gland membranes, tissue array (FIG. 4)
Text: 5 male Sprague Dawley rats (250-275 g) were anesthetized and sacrificed according to the guide approved by the Ethics Committee of the Faculty of Medicine of the University of the Basque Country, following the internationally accepted guidelines (86/609/EEC). The organs and tissue which were to be used in the experiment (pancreas, stomach, small intestine, spleen, heart, lung, liver, testicle, vas deferens, kidney, suprarenal glands, bone marrow and brain: frontal cortex, striatum, brain stem, pituitary gland, olfactory nuclei, hippocampus, hypothalamus, thalamus, colliculus and cerebellum) were then removed. These samples were stored at −70° C. until the experiment was carried out.
The tissue samples (1 g) were homogenized using a teflon-glass homogenizer (10 strokes at 1,500 rpm) in 30 volumes of homogenization buffer [1 mM ethylene glycol-bis(β-aminoethyl)-N,N,N′,N′-tetraacetic acid (EGTA), 3 mM MgCl2, 1 mM dithiothreitol (DTT) and 50 mM Tris-HCl, pH 7.4] supplemented with […] sucrose. The crude homogenate was centrifuged at 3,000×g and at 4° C. for 5 minutes and the resulting supernatant was again centrifuged at 40,000×g for 10 minutes (4° C.). The pellet was washed in 20 volumes of homogenization buffer and re-centrifuged in the same conditions. Aliquots were carried out and stored at −70° C. The protein content was determined according to the Bradford method [Bradford M M., Anal Biochem 1976; 72:248-54] using bovine serum albumin (BSA) as a standard.
1 mg/ml aliquots of each tissue were taken and with this suspension, 1 μl microspots were made on glass supports (slides) which were previously treated with concentrated orthophosphoric acid (85%); to that end, the slides were first washed with acetone and then with anhydrous isopropanol, they were dried and finally submersed in concentrated orthophosphoric acid (85%) for 24 hours, they were washed with distilled water (Millipore) and air-dried. The arrays were frozen at −70° C. until the experiment was carried out.
The slides with tissue sections were allowed to dry for 15 minutes at room temperature. The tissue section were then pre-incubated in assay buffer at pH 7.4 [50 mM Tris-HCl, 3 mM MgCl2, 0.2 mM EGTA, 100 mM NaCl, 3 mU/ml adenosine deaminase] for 20 minutes at room temperature to eliminate, as much as possible, the presence of endogenous neurotransmitters; afterwards, the sections were pre-incubated again in the assay buffer supplemented with guanosine diphosphate (GDP) (2 mM) and DTT (1 mM).
The slides were then incubated for 2 hours at 30° C. in the previous assay buffer, to which the following substances were added according to the different conditions of the experiment:
Baseline: 0.04 nM [^35S] GTPγS
Activated: 0.04 nM [^35S] GTPγS+agonist
Inhibited: 0.04 nM [^35S]GTPγS+agonist+antagonist
Non-specific: 0.04 nM [^35S] GTPγS+10 μM GTPγS
Once this time had elapsed, 2 washings of 15 minutes in the buffer 50 mM Tris-HCl, pH 7.4 at 4° C. were carried out. After the second washing, the sections were submersed in distilled water at 4° C. to eliminate the salts and the slide was dried by means of applying a cold air current.
The slides with the corresponding sections were then exposed to a radiosensitive film (Kodak Biomax MR) which was developed in a manner similar to a photographic film. The labeling was quantified according to the different gray densities at nCi/g of tissue equivalent. To that end, each film was exposed together with the previously calibrated commercial standards (Amersham). The quantification was carried out with microscopic anatomical resolution in a computerized image analysis system, using NIH-image software, of G protein activation.
The following ligands were used to study [^35S] GTPγS fixing in the absence (baseline) and in the presence of galanin receptor ligands: galanin, galnon, gal (2-11), M15 [galanin-(1-13)-substance P-5-11 amide], M35 [galanin-(1-13)-bradykinin-(2,9) amide] and M40 [galanin-(1-13)-[…]amide].

Compound	effect on the action of galnon on [35S]GTPγS fixing	[35S]GTPγS fixing in the presence of ligand versus baseline
galanin-(1-13)-bradykinin-(2,9) amide [M35]	antagonized	increase
galanin-(1-13)-substance P-5-11 amide [M15]		increase
galanin-(1-13)-Pro-Pro-Ala-Leu-Ala-Leu-Ala-Leu-Ala amide [M40]	antagonized	increase
gal (2-11): galanin receptor ligand		increase
Cc1cc(=O)oc2cc(NC(=O)[C@H](CCCCN)NC(=O)[C@H](CC3CCCCC3)NC(=O)OCC3c4ccccc4-c4ccccc43)ccc12 [galnon] (HELM PEPTIDE1{[O=C(OCC1c2ccccc2-c2ccccc21)[*:2]].[Cha].K.[Cc1cc(=O)oc2cc(N[*:1])ccc12]}$$$$V2.0)		increase
